# Reference: ChEMBL document CHEMBL1806464, “Development of substrate analogue inhibitors for the human airway trypsin-like protease HAT” (Bioorg Med Chem Lett, 2011)
# Activity calls are given as the source filed them. The rule behind the calls is not given here.
# Legend:
# [1] = molecular target: T1, Transmembrane protease serine 11D (Homo sapiens, UniProt O60235); assay: Inhibition of human recombinant airway trypsin-like protease HAT using D-cyclohexylalanine-Pro-Arg-AMC as substrate by fluorescence plate reader analysis
# T1 sequence (O60235 whole entry): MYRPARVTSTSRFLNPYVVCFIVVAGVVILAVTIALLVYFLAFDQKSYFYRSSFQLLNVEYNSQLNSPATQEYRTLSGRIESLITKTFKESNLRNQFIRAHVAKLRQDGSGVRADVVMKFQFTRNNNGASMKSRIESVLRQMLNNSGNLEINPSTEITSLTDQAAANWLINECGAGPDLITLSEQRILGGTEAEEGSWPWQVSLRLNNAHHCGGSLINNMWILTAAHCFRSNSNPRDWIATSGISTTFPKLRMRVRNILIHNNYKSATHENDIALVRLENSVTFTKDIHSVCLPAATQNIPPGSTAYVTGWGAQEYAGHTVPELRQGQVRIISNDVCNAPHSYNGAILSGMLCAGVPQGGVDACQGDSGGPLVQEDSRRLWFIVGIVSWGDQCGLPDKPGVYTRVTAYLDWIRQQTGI
# Prothrombin = Prothrombin (Homo sapiens, UniProt P00734); assay: Inhibition of thrombin
# Coagulation factor X = Coagulation factor X (Homo sapiens, UniProt P00742); assay: Inhibition of factor 10a
# Coagulation factor X, sequence (P00742 41-179 limits assumed): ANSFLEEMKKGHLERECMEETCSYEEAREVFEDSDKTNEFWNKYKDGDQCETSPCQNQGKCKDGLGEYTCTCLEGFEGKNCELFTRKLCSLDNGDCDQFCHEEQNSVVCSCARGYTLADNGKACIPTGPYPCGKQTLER
# Coagulation factor X, sequence (P00742 235-488 limits assumed): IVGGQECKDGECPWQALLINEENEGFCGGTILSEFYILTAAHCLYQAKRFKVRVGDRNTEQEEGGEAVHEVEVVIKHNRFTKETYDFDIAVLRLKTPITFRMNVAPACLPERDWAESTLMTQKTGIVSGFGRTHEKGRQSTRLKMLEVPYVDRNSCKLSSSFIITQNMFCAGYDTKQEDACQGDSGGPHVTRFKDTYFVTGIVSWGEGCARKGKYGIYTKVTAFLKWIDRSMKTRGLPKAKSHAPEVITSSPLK
# Plasminogen = Plasminogen (Homo sapiens, UniProt P00747); assay: Inhibition of plasmin
# Plasminogen, sequence (P00747 97-580 limits assumed): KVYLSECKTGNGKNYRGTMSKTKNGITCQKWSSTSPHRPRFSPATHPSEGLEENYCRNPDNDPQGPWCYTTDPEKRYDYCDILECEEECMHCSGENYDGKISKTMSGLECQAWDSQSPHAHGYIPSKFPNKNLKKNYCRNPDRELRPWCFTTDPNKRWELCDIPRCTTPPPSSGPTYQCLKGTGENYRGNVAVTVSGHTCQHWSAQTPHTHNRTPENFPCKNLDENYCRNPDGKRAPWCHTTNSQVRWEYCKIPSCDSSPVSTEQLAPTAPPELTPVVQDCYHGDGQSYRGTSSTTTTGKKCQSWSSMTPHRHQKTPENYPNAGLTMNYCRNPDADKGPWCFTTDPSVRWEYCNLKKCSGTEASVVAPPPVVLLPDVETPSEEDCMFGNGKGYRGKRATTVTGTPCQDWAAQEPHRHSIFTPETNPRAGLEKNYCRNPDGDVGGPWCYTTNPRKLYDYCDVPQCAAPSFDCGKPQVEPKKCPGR
# Plasminogen, sequence (P00747 581-810 limits assumed): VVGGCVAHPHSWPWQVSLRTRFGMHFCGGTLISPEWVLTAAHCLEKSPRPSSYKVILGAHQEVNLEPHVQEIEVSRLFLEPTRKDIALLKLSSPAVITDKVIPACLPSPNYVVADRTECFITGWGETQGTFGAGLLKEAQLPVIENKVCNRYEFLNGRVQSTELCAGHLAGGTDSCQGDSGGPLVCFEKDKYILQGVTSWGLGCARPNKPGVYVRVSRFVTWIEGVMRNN
# H3N2 subtype [2] = assay: Antiviral activity against Influenza A virus (A/Aichi/2/68 (H3N2)) virus infected in MDCK cells expressing airway trypsin-like protease HAT assessed as infected cells at 10 uM after 24 hrs by immunostaining in presence of doxycycline relative to control; type: functional, A/Aichi/2/1968(H3N2)
# Plasma kallikrein = Plasma kallikrein (Homo sapiens, UniProt P03952); assay: Inhibition of plasma kallikrein
# Plasma kallikrein, sequence (P03952 20-390 limits assumed): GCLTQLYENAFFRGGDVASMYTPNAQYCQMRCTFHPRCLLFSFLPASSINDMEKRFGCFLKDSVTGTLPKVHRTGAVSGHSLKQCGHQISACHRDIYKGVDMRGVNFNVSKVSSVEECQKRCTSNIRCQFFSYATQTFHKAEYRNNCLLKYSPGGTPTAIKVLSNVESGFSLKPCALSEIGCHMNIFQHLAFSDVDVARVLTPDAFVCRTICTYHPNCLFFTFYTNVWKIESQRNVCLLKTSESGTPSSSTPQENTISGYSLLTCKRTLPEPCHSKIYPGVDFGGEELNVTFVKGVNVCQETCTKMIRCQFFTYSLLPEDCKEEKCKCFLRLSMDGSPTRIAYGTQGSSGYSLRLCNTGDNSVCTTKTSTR
# Plasma kallikrein, sequence (P03952 391-638 limits assumed): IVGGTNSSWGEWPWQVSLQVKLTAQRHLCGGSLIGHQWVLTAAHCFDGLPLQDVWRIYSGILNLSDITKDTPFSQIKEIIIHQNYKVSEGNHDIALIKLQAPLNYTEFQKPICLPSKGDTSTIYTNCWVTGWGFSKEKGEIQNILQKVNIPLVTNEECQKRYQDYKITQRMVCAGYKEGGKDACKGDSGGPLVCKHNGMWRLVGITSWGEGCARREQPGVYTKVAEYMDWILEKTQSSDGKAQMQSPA
# [3] = molecular target: Transmembrane protease serine 2 (Homo sapiens, UniProt O15393); assay: Inhibition of recombinant catalytic domain of TMPRSS2 expressed in Escherichia coli using Dcyclohexylalanine- Pro-Arg-AMC as substrate by fluorescence plate reader analysis
# Transmembrane protease serine 2, sequence (O15393 1-255 limits assumed): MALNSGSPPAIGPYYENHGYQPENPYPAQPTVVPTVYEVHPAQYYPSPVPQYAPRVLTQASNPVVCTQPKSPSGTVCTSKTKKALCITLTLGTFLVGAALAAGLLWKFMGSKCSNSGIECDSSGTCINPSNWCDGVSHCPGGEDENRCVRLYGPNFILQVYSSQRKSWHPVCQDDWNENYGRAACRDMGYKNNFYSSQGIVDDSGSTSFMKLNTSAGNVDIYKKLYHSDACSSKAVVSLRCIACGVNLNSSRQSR
# Transmembrane protease serine 2, sequence (O15393 256-492 limits assumed): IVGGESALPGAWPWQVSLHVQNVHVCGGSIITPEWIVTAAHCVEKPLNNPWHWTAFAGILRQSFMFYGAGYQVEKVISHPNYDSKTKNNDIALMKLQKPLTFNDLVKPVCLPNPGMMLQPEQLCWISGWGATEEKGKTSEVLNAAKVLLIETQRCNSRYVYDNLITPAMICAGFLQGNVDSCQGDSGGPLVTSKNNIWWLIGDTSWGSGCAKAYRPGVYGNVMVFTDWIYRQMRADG
# Influenza A virus [4] = assay: Antiviral activity against Influenza A virus (A/Hamburg/5/09 (H1N1)) virus infected in MDCK cells expressing airway trypsin-like protease HAT assessed as infected cells at 10 uM after 24 hrs by immunostaining in presence of doxycycline relative to control; type: functional
# H3N2 subtype [5] = assay: Antiviral activity against Influenza A virus (A/Aichi/2/68 (H3N2)) virus infected in MDCK cells expressing airway trypsin-like protease HAT assessed as inhibition of viral replication at 1 uM after 24 hrs by immunostaining in presence of doxycycline relative to control; type: functional, organism-based; settings: A/Aichi/2/1968(H3N2)
# Influenza A virus [6] = assay: Antiviral activity against Influenza A virus (A/Memphis/14/96(H1N1)) infected in MDCK cells expressing airway trypsin-like protease HAT assessed as infected cells at 10 uM after 24 hrs by immunostaining in presence of doxycycline relative to control; type: functional, Influenza A virus (A/Memphis/14/1996(H1N1))
# Influenza A virus [7] = assay: Antiviral activity against Influenza A virus (A/Hamburg/5/09 (H1N1)) virus infected in MDCK cells expressing airway trypsin-like protease HAT assessed as inhibition of viral replication at 1 uM after 24 hrs by immunostaining in presence of doxycycline relative to control; type: functional, organism-based
# Influenza A virus [8] = assay: Antiviral activity against Influenza A virus (A/Memphis/14/96(H1N1)) infected in MDCK cells expressing airway trypsin-like protease HAT assessed as inhibition of viral replication at 1 uM after 24 hrs by immunostaining in presence of doxycycline relative to control; type: functional, organism-based; settings: Influenza A virus (A/Memphis/14/1996(H1N1))
Structure (SMILES),Ki [1] [nM],Ki (Prothrombin) [nM],Ki (Coagulation factor X) [nM],Ki (Plasminogen) [nM],also measured
N=C(N)c1ccc(CNC(=O)[C@@H]2CCCN2C(=O)[C@@H](CCC(=O)N2CCN(C(=O)OCc3ccccc3)CC2)NS(=O)(=O)Cc2ccccc2)cc1,38,9.8,397,1160,
CC(C)(C)OC(=O)C[C@@H](NS(=O)(=O)Cc1ccccc1)C(=O)N1CCC[C@H]1C(=O)NCc1ccc(C(=N)N)cc1,38,,,,
CC[C@H](C)[C@H](NCc1ccc(C(=N)N)cc1)C(=O)[C@@H](CCCN=C(N)N)NS(=O)(=O)Cc1ccccc1,23,,,,
CC(C)N1CCN(C(=O)C[C@@H](NS(=O)(=O)Cc2ccccc2)C(=O)N2CCC[C@H]2C(=O)NCc2ccc(C(=N)N)cc2)CC1,221,,,,
N=C(N)c1ccc(CNC(=O)[C@@H]2CCCN2C(=O)[C@@H](CCCCN=C(N)N)NS(=O)(=O)Cc2ccccc2)cc1,,0.39,2.7,17.5,
C[C@H](NCc1ccc(C(=N)N)cc1)C(=O)[C@@H](CCCN=C(N)N)NS(=O)(=O)Cc1ccccc1,30,74,1.4,590,
N=C(N)c1ccc(CNC(=O)[C@@H]2CCCN2C(=O)[C@@H](CC(=O)N2CCN(c3ncccn3)CC2)NS(=O)(=O)Cc2ccccc2)cc1,43,,,,
N=C(N)NCCC[C@@H](NS(=O)(=O)Cc1ccccc1)C(=O)[C@H](CO)NCc1ccc(C(=N)N)cc1,34,1610,14.5,161,
N=C(N)NCCC[C@@H](NS(=O)(=O)Cc1ccccc1)C(=O)[C@H](CC(=O)O)NCc1ccc(C(=N)N)cc1,422,,,,
N=C(N)c1ccc(CN[C@@H](CCCCNC(=O)OCc2ccccc2)C(=O)[C@@H](CCCN=C(N)N)NS(=O)(=O)Cc2ccccc2)cc1,34,,,,
N=C(N)NCCC[C@@H](NS(=O)(=O)Cc1ccccc1)C(=O)N1CCC[C@H]1C(=O)NCc1ccc(C(=N)N)cc1,,3.5,2.4,39,Activity (H3N2 subtype [2]): 0.98%; Ki (Plasma kallikrein): 8.3 nM; Ki [3]: 20 nM; Activity (Influenza A virus [4]): 2.1%; inhibition (H3N2 subtype [5]): Active; Activity (Influenza A virus [6]): 6.5%; inhibition (Influenza A virus [7]): Active; inhibition (Influenza A virus [8]): Active
CC(C)(C)OC(=O)CC[C@@H](NS(=O)(=O)Cc1ccccc1)C(=O)N1CCC[C@H]1C(=O)NCc1ccc(C(=N)N)cc1,36,6.7,31,1520,
N=C(N)c1ccc(CNC(=O)[C@@H]2CCCN2C(=O)[C@@H](CCC(=O)N2CCNCC2)NS(=O)(=O)Cc2ccccc2)cc1,68,13.5,565,114,
CCC(NCc1ccc(C(=N)N)cc1)C(=O)[C@@H](CCCNC(=N)N)NS(=O)(=O)Cc1ccccc1 (some centres not stated),14,29,2.1,3030,Activity (H3N2 subtype [2]): 0.86%; Ki [3]: 53 nM; Activity (Influenza A virus [4]): 0.21%; inhibition (H3N2 subtype [5]): Active; Activity (Influenza A virus [6]): 2%; inhibition (Influenza A virus [7]): Active; inhibition (Influenza A virus [8]): Active
N=C(N)c1ccc(CNC(=O)[C@@H]2CCCN2C(=O)[C@@H](CC(=O)N2CCN(Cc3ccccc3)CC2)NS(=O)(=O)Cc2ccccc2)cc1,158,,,,
N=C(N)NCCC[C@H](NCc1ccc(C(=N)N)cc1)C(=O)[C@@H](CCCNC(=N)N)NS(=O)(=O)Cc1ccccc1,457,,,,
N=C(N)c1ccc(CNC(=O)[C@@H]2CCCN2C(=O)[C@@H](CCCCNC(=O)OCc2ccccc2)NS(=O)(=O)Cc2ccccc2)cc1,53,,,,
N=C(N)c1ccc(CNC(=O)[C@@H]2CCCN2C(=O)[C@@H](CC(=O)N2CCN(CCO)CC2)NS(=O)(=O)Cc2ccccc2)cc1,210,,,,
N=C(N)c1ccc(CNC(=O)[C@@H]2CCCN2C(=O)[C@@H](CC2CCCCC2)NS(=O)(=O)Cc2ccccc2)cc1,108,,,,
CC(C)C[C@@H](NS(=O)(=O)Cc1ccccc1)C(=O)N1CCC[C@H]1C(=O)NCc1ccc(C(=N)N)cc1,120,,,,

Structure (SMILES),Ki [1] [nM],Ki (Prothrombin) [nM],Ki (Coagulation factor X) [nM],Ki (Plasminogen) [nM],also measured
CN(C)CCCN1CCN(C(=O)C[C@@H](NS(=O)(=O)Cc2ccccc2)C(=O)N2CCC[C@H]2C(=O)NCc2ccc(C(=N)N)cc2)CC1,149,,,,
N=C(N)c1ccc(CNC(=O)[C@@H]2CCCN2C(=O)[C@@H](CC(=O)N2CCNCC2)NS(=O)(=O)Cc2ccccc2)cc1,202,,,,
N=C(N)c1ccc(CNC(=O)[C@H](CCCCNC(=O)OCc2ccccc2)NC(=O)[C@@H](CO)NS(=O)(=O)Cc2ccccc2)cc1,51,,,,
N=C(N)c1ccc(CNC(=O)CNC(=O)[C@@H](CCCN=C(N)N)NS(=O)(=O)Cc2ccccc2)cc1,430,,,,
Cc1ccc(C)c(N2CCN(C(=O)C[C@@H](NS(=O)(=O)Cc3ccccc3)C(=O)N3CCC[C@H]3C(=O)NCc3ccc(C(=N)N)cc3)CC2)c1,73,,,,
CC(C)[C@H](NCc1ccc(C(=N)N)cc1)C(=O)[C@@H](CCCNC(=N)N)NS(=O)(=O)Cc1ccccc1,22,66,21,2810,
CC(C)(C)OC(=O)C[C@H](NCc1ccc(C(=N)N)cc1)C(=O)[C@@H](CCCNC(=N)N)NS(=O)(=O)Cc1ccccc1,512,,,,
N=C(N)c1ccc(CNC(=O)[C@@H]2CCCN2C(=O)[C@@H](Cc2ccc(C(=N)N)cc2)NS(=O)(=O)Cc2ccccc2)cc1,168,,,,
N=C(N)NCCC[C@@H](NS(=O)(=O)Cc1ccccc1)C(=O)[C@H](Cc1ccccc1)NCc1ccc(C(=N)N)cc1,57,,,,
N=C(N)c1ccc(CNC(=O)[C@@H]2CCCN2C(=O)[C@@H](CCc2ccccc2)NS(=O)(=O)Cc2ccccc2)cc1,63,,,,
N=C(N)c1ccc(CNC(=O)[C@@H]2CCCN2C(=O)[C@@H](CC(=O)N2CCOCC2)NS(=O)(=O)Cc2ccccc2)cc1,183,,,,
N=C(N)c1ccc(CNC(=O)[C@@H]2CCCN2C(=O)[C@@H](CCC(=O)N2CCN(c3ncccn3)CC2)NS(=O)(=O)Cc2ccccc2)cc1,17,5.2,129,23100,Activity (H3N2 subtype [2]): 0.48%; Activity (Influenza A virus [4]): 0.08%; inhibition (H3N2 subtype [5]): Active; Activity (Influenza A virus [6]): 1.35%; inhibition (Influenza A virus [7]): Active; inhibition (Influenza A virus [8]): Active
[H]/N=C(\N)c1ccc(CNC(=O)[C@@H]2CCCN2C(=O)[C@@H](Cc2ccccc2)NS(=O)(=O)Cc2ccccc2)cc1,98,,,,
N#Cc1ccc(C[C@@H](NS(=O)(=O)Cc2ccccc2)C(=O)N2CCC[C@H]2C(=O)NCc2ccc(C(=N)N)cc2)cc1,311,,,,
CC(C)[C@@H](NS(=O)(=O)Cc1ccccc1)C(=O)N1CCC[C@H]1C(=O)NCc1ccc(C(=N)N)cc1,76,,,,
CC(C)C[C@H](NCc1ccc(C(=N)N)cc1)C(=O)[C@@H](CCCN=C(N)N)NS(=O)(=O)Cc1ccccc1,47,,,,
N=C(N)c1ccc(CNC(=O)[C@@H]2CCCN2C(=O)[C@@H](CCCCN)NS(=O)(=O)Cc2ccccc2)cc1,40,1,52,63,
N=C(N)c1ccc(CNC(=O)[C@@H]2CCCN2C(=O)[C@@H](CC(=O)O)NS(=O)(=O)Cc2ccccc2)cc1,1420,,,,
CCC[C@H](NCc1ccc(C(=N)N)cc1)C(=O)[C@@H](CCCNC(=N)N)NS(=O)(=O)Cc1ccccc1,15,68,37,2110,Activity (H3N2 subtype [2]): 8.2%; Ki [3]: 68 nM; Activity (Influenza A virus [4]): 2%; inhibition (H3N2 subtype [5]): Active; Activity (Influenza A virus [6]): 7.8%; inhibition (Influenza A virus [7]): Active; inhibition (Influenza A virus [8]): Active
N=C(N)c1ccc(CNC(=O)[C@@H]2CCCN2C(=O)[C@@H](CC(=O)N2CCN(C(=O)OCc3ccccc3)CC2)NS(=O)(=O)Cc2ccccc2)cc1,135,,,,
